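Cultured in 96-well plates, cells were exposed to test compound for 48 hours across five concentrations. TGI denotes the concentration required for complete inhibition of growth.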
What was measured:
Test in all cases: DTP human tumour cell line panel, 48 h
SK-MEL-5 melanoma = test system: SK-MEL-5 melanoma
NCI-H522 lung = test system: NCI-H522 lung
SN12C renal = test system: SN12C renal
HT29 colon = test system: HT29 colon
HCT-15 colon = test system: HCT-15 colon
HS 578T breast = test system: HS 578T breast
CAKI-1 renal = test system: CAKI-1 renal
UO-31 renal = test system: UO-31 renal
IGROV1 ovarian = test system: IGROV1 ovarian
U251 CNS = test system: U251 CNS
ACHN renal = test system: ACHN renal
DU-145 prostate = test system: DU-145 prostate
COLO 205 colon = test system: COLO 205 colon
HCC-2998 colon = test system: HCC-2998 colon
HCT-116 colon = test system: HCT-116 colon
UACC-62 melanoma = test system: UACC-62 melanoma
MCF7 breast = test system: MCF7 breast
SF-539 CNS = test system: SF-539 CNS
OVCAR-8 ovarian = test system: OVCAR-8 ovarian
NCI-H460 lung = test system: NCI-H460 lung
CCRF-CEM leukemia = test system: CCRF-CEM leukemia
MDA-MB-231 breast = test system: MDA-MB-231 breast
A498 renal = test system: A498 renal
HOP-92 NSCLC = test system: HOP-92 NSCLC
OVCAR-4 ovarian = test system: OVCAR-4 ovarian
NCI/ADR-RES ovarian = test system: NCI/ADR-RES ovarian
OVCAR-3 ovarian = test system: OVCAR-3 ovarian
SK-MEL-2 melanoma = test system: SK-MEL-2 melanoma
UACC-257 melanoma = test system: UACC-257 melanoma
OVCAR-5 ovarian = test system: OVCAR-5 ovarian
MALME-3M melanoma = test system: MALME-3M melanoma
SW-620 colon = test system: SW-620 colon
NCI-H23 lung = test system: NCI-H23 lung
T-47D breast = test system: T-47D breast
PC-3 prostate = test system: PC-3 prostate
EKVX NSCLC = test system: EKVX NSCLC
MDA-MB-435 = test system: MDA-MB-435
786-0 renal = test system: 786-0 renal
RPMI-8226 leukemia = test system: RPMI-8226 leukemia
SK-MEL-28 melanoma = test system: SK-MEL-28 melanoma
SNB-19 CNS = test system: SNB-19 CNS
M14 melanoma = test system: M14 melanoma
SNB-75 CNS = test system: SNB-75 CNS
MOLT-4 leukemia = test system: MOLT-4 leukemia
A549 NSCLC = test system: A549 NSCLC
SF-268 CNS = test system: SF-268 CNS
TK-10 renal = test system: TK-10 renal
LOX IMVI melanoma = test system: LOX IMVI melanoma
MDA-N = test system: MDA-N
SF-295 CNS = test system: SF-295 CNS
HL-60(TB) leukemia = test system: HL-60(TB) leukemia
KM12 colon = test system: KM12 colon
SR leukemia = test system: SR leukemia
HOP-62 NSCLC = test system: HOP-62 NSCLC
K-562 leukemia = test system: K-562 leukemia
BT-549 breast = test system: BT-549 breast
SK-OV-3 ovarian = test system: SK-OV-3 ovarian
NCI-H226 lung = test system: NCI-H226 lung
RXF 393 renal = test system: RXF 393 renal

## COc1cc(OCc2ccc3nc(-c4ccccc4)c(Cl)nc3c2)cc(OC)c1OC
SK-MEL-5 melanoma
  TGI: > 100 µM
NCI-H522 lung
  TGI: > 100 µM
SN12C renal
  TGI: > 100 µM
HT29 colon
  TGI: > 100 µM
HCT-15 colon
  TGI: > 100 µM
HS 578T breast
  TGI: > 100 µM
CAKI-1 renal
  TGI: > 100 µM
UO-31 renal
  TGI: > 100 µM
IGROV1 ovarian
  TGI: > 100 µM
U251 CNS
  TGI: 52.3 µM
ACHN renal
  TGI: > 100 µM
DU-145 prostate
  TGI: > 100 µM
COLO 205 colon
  TGI: > 100 µM
HCC-2998 colon
  TGI: > 100 µM
HCT-116 colon
  TGI: > 100 µM
UACC-62 melanoma
  TGI: > 100 µM
MCF7 breast
  TGI: > 100 µM
SF-539 CNS
  TGI: > 100 µM
OVCAR-8 ovarian
  TGI: > 100 µM
NCI-H460 lung
  TGI: > 100 µM
CCRF-CEM leukemia
  TGI: > 100 µM
MDA-MB-231 breast
  TGI: > 100 µM
A498 renal
  TGI: 98.9 µM
HOP-92 NSCLC
  TGI: 78.3 µM
OVCAR-4 ovarian
  TGI: > 100 µM
NCI/ADR-RES ovarian
  TGI: > 100 µM
OVCAR-3 ovarian
  TGI: > 100 µM
SK-MEL-2 melanoma
  TGI: > 100 µM
UACC-257 melanoma
  TGI: > 100 µM
OVCAR-5 ovarian
  TGI: > 100 µM
MALME-3M melanoma
  TGI: 96.1 µM
SW-620 colon
  TGI: > 100 µM
NCI-H23 lung
  TGI: > 100 µM
T-47D breast
  TGI: > 100 µM
PC-3 prostate
  TGI: > 100 µM
EKVX NSCLC
  TGI: > 100 µM
MDA-MB-435
  TGI: > 100 µM
786-0 renal
  TGI: > 100 µM
RPMI-8226 leukemia
  TGI: > 100 µM
SK-MEL-28 melanoma
  TGI: > 100 µM
SNB-19 CNS
  TGI: > 100 µM
M14 melanoma
  TGI: > 100 µM
SNB-75 CNS
  TGI: > 100 µM
MOLT-4 leukemia
  TGI: > 100 µM
A549 NSCLC
  TGI: > 100 µM
SF-268 CNS
  TGI: > 100 µM
TK-10 renal
  TGI: > 100 µM
LOX IMVI melanoma
  TGI: > 100 µM
MDA-N
  TGI: > 100 µM
SF-295 CNS
  TGI: > 100 µM
HL-60(TB) leukemia
  TGI: > 100 µM
KM12 colon
  TGI: > 100 µM
SR leukemia
  TGI: > 100 µM
HOP-62 NSCLC
  TGI: > 100 µM

## C[C@]12C[C@H](c3ccccc3)Nc3ccccc3N1C(c1ccccc1)=NO2
SK-MEL-5 melanoma
  TGI: > 100 µM
NCI-H522 lung
  TGI: > 100 µM
SN12C renal
  TGI: > 100 µM
HT29 colon
  TGI: > 100 µM
HCT-15 colon
  TGI: > 100 µM
HS 578T breast
  TGI: > 100 µM
CAKI-1 renal
  TGI: > 100 µM
UO-31 renal
  TGI: > 100 µM
IGROV1 ovarian
  TGI: > 100 µM
U251 CNS
  TGI: > 100 µM
ACHN renal
  TGI: > 100 µM
K-562 leukemia
  TGI: > 100 µM
DU-145 prostate
  TGI: > 100 µM
COLO 205 colon
  TGI: > 100 µM
HCC-2998 colon
  TGI: > 100 µM
HCT-116 colon
  TGI: > 100 µM
UACC-62 melanoma
  TGI: > 100 µM
MCF7 breast
  TGI: > 100 µM
SF-539 CNS
  TGI: > 100 µM
OVCAR-8 ovarian
  TGI: > 100 µM
NCI-H460 lung
  TGI: > 100 µM
CCRF-CEM leukemia
  TGI: > 100 µM
BT-549 breast
  TGI: > 100 µM
MDA-MB-231 breast
  TGI: > 100 µM
SK-OV-3 ovarian
  TGI: > 100 µM
A498 renal
  TGI: > 100 µM
HOP-92 NSCLC
  TGI: > 100 µM
NCI-H226 lung
  TGI: > 100 µM
OVCAR-4 ovarian
  TGI: > 100 µM
NCI/ADR-RES ovarian
  TGI: > 100 µM
OVCAR-3 ovarian
  TGI: > 100 µM
SK-MEL-2 melanoma
  TGI: > 100 µM
UACC-257 melanoma
  TGI: > 100 µM
OVCAR-5 ovarian
  TGI: > 100 µM
RXF 393 renal
  TGI: > 100 µM
MALME-3M melanoma
  TGI: > 100 µM
SW-620 colon
  TGI: > 100 µM
NCI-H23 lung
  TGI: > 100 µM
PC-3 prostate
  TGI: > 100 µM
EKVX NSCLC
  TGI: 92.6 µM
MDA-MB-435
  TGI: > 100 µM
786-0 renal
  TGI: > 100 µM
RPMI-8226 leukemia
  TGI: > 100 µM
SNB-19 CNS
  TGI: > 100 µM
M14 melanoma
  TGI: > 100 µM
SNB-75 CNS
  TGI: > 100 µM
MOLT-4 leukemia
  TGI: 78.8 µM
A549 NSCLC
  TGI: > 100 µM
SF-268 CNS
  TGI: > 100 µM
TK-10 renal
  TGI: > 100 µM
MDA-N
  TGI: > 100 µM
SF-295 CNS
  TGI: > 100 µM
HL-60(TB) leukemia
  TGI: > 100 µM
KM12 colon
  TGI: > 100 µM
SR leukemia
  TGI: 26.6 µM
HOP-62 NSCLC
  TGI: > 100 µM

## O=C1c2cccc3cc([N+](=O)[O-])cc(c23)C(=O)N1CCCN1CCN(CCCNc2ccc3ncn4c5ccccc5c(=O)c2c34)CC1
HT29 colon
  TGI: < 0.005 µM
HCT-15 colon
  TGI: > 50 µM
HS 578T breast
  TGI: 8.75 µM
CAKI-1 renal
  TGI: 0.00674 µM
U251 CNS
  TGI: 0.00861 µM
DU-145 prostate
  TGI: > 19.9 µM
UACC-62 melanoma
  TGI: > 50 µM
MCF7 breast
  TGI: < 0.005 µM
SF-539 CNS
  TGI: 0.0871 µM
OVCAR-8 ovarian
  TGI: 0.173 µM
NCI-H460 lung
  TGI: > 50 µM
CCRF-CEM leukemia
  TGI: 5 µM
BT-549 breast
  TGI: 0.0361 µM
MDA-MB-231 breast
  TGI: 0.62 µM
SK-OV-3 ovarian
  TGI: > 20 µM
A498 renal
  TGI: 5.67 µM
HOP-92 NSCLC
  TGI: > 50 µM
NCI-H226 lung
  TGI: < 0.005 µM
OVCAR-4 ovarian
  TGI: > 50 µM
NCI/ADR-RES ovarian
  TGI: 0.0864 µM
OVCAR-3 ovarian
  TGI: > 17.2 µM
SK-MEL-2 melanoma
  TGI: > 29 µM
UACC-257 melanoma
  TGI: > 50 µM
OVCAR-5 ovarian
  TGI: > 16.9 µM
SW-620 colon
  TGI: > 50 µM
PC-3 prostate
  TGI: > 17.1 µM
EKVX NSCLC
  TGI: > 50 µM
MDA-MB-435
  TGI: > 50 µM
RPMI-8226 leukemia
  TGI: > 50 µM
SK-MEL-28 melanoma
  TGI: > 25.5 µM
SNB-19 CNS
  TGI: > 50 µM
M14 melanoma
  TGI: 0.0785 µM
SNB-75 CNS
  TGI: 0.187 µM
MOLT-4 leukemia
  TGI: > 50 µM
A549 NSCLC
  TGI: > 50 µM
SF-268 CNS
  TGI: 16.1 µM
MDA-N
  TGI: 0.579 µM
HOP-62 NSCLC
  TGI: 1.74 µM

## COc1ccc(Nc2nnc(CCCCCCCCc3nnc(Nc4ccc(OC)cc4)o3)o2)cc1
SK-MEL-5 melanoma
  TGI: > 100 µM
NCI-H522 lung
  TGI: > 100 µM
SN12C renal
  TGI: > 100 µM
HT29 colon
  TGI: > 100 µM
HCT-15 colon
  TGI: > 100 µM
CAKI-1 renal
  TGI: > 100 µM
UO-31 renal
  TGI: > 100 µM
IGROV1 ovarian
  TGI: > 100 µM
U251 CNS
  TGI: > 100 µM
ACHN renal
  TGI: > 100 µM
K-562 leukemia
  TGI: > 100 µM
DU-145 prostate
  TGI: > 100 µM
COLO 205 colon
  TGI: > 100 µM
HCC-2998 colon
  TGI: > 100 µM
HCT-116 colon
  TGI: > 100 µM
MCF7 breast
  TGI: > 100 µM
SF-539 CNS
  TGI: > 100 µM
OVCAR-8 ovarian
  TGI: > 100 µM
NCI-H460 lung
  TGI: > 100 µM
CCRF-CEM leukemia
  TGI: > 100 µM
BT-549 breast
  TGI: > 100 µM
MDA-MB-231 breast
  TGI: > 100 µM
SK-OV-3 ovarian
  TGI: > 100 µM
A498 renal
  TGI: > 100 µM
HOP-92 NSCLC
  TGI: > 100 µM
NCI-H226 lung
  TGI: > 100 µM
OVCAR-4 ovarian
  TGI: > 100 µM
NCI/ADR-RES ovarian
  TGI: > 100 µM
OVCAR-3 ovarian
  TGI: > 100 µM
SK-MEL-2 melanoma
  TGI: > 100 µM
UACC-257 melanoma
  TGI: > 100 µM
OVCAR-5 ovarian
  TGI: > 100 µM
RXF 393 renal
  TGI: > 100 µM
MALME-3M melanoma
  TGI: > 100 µM
SW-620 colon
  TGI: > 100 µM
NCI-H23 lung
  TGI: > 100 µM
PC-3 prostate
  TGI: > 100 µM
EKVX NSCLC
  TGI: > 100 µM
MDA-MB-435
  TGI: > 100 µM
786-0 renal
  TGI: > 100 µM
SK-MEL-28 melanoma
  TGI: > 100 µM
SNB-19 CNS
  TGI: > 100 µM
M14 melanoma
  TGI: > 100 µM
SNB-75 CNS
  TGI: > 100 µM
MOLT-4 leukemia
  TGI: > 100 µM
A549 NSCLC
  TGI: > 100 µM
SF-268 CNS
  TGI: > 100 µM
TK-10 renal
  TGI: > 100 µM
LOX IMVI melanoma
  TGI: > 100 µM
MDA-N
  TGI: > 100 µM
SF-295 CNS
  TGI: > 100 µM
HL-60(TB) leukemia
  TGI: > 100 µM
KM12 colon
  TGI: > 100 µM
HOP-62 NSCLC
  TGI: > 100 µM

Reference: PubChem BioAssay (NCI)
